From patent US9315486B2, “Therapeutic cyclopentanols, compositions thereof, and methods for use thereof” (Allergan, Inc., priority 2013, dated 2016)
pEC50: −log10 of the molar value.

Tests used:
DP = biological target: T1, DP (Homo sapiens, UniProt Q13258); assay: DP activity study; format: cell-based
T1 sequence (Q13258 1-359): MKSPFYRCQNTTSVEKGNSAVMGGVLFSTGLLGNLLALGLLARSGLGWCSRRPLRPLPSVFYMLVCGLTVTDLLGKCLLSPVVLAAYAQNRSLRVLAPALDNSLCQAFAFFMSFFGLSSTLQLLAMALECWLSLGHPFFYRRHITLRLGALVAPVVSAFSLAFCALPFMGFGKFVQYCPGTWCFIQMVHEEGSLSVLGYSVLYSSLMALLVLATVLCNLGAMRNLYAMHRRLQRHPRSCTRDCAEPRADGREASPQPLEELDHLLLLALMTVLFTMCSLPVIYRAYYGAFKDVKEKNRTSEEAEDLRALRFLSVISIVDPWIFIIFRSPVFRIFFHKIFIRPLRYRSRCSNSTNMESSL
Method: (§1) Data from running binding and activity studies on the compounds of the invention were carried out as described in U.S. Pat. No. 7,427,685, the contents of which are incorporated herein by reference.

EP2 [1] = biological target: T2, EP2 (Homo sapiens, UniProt P43116); assay: EP2 binding study
T2 sequence (P43116 whole entry): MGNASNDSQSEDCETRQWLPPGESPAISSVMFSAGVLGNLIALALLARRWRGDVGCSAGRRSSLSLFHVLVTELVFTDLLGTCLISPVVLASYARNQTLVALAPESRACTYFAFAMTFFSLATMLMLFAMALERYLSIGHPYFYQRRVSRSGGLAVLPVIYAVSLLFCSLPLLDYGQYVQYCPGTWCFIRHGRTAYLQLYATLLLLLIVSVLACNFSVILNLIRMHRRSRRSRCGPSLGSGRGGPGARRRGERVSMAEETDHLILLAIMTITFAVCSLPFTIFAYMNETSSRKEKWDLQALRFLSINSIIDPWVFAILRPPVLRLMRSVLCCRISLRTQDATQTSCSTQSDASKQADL
Method: as §1

EP4 [2] = biological target: T3, EP4 (Homo sapiens, UniProt P35408); assay: EP4 Ca2+ signal activity study; format: cell-based
T3 sequence (P35408 whole entry): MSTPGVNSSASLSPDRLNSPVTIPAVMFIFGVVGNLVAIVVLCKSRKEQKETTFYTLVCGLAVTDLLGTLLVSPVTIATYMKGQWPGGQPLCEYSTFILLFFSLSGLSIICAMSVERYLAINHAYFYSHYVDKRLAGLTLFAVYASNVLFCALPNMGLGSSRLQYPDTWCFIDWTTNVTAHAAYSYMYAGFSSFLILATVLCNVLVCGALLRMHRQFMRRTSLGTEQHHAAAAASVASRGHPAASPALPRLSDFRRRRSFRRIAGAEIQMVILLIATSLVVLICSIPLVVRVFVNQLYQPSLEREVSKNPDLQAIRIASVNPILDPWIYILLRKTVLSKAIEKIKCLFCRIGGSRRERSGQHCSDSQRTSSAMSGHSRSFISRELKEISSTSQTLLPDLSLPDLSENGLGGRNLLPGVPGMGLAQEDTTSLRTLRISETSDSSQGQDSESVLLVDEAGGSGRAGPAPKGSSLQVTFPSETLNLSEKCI
Method: as §1

EP1 = biological target: T4, EP1 (Homo sapiens, UniProt P34995); assay: EP1 activity study; format: cell-based
T4 sequence (P34995 1-402): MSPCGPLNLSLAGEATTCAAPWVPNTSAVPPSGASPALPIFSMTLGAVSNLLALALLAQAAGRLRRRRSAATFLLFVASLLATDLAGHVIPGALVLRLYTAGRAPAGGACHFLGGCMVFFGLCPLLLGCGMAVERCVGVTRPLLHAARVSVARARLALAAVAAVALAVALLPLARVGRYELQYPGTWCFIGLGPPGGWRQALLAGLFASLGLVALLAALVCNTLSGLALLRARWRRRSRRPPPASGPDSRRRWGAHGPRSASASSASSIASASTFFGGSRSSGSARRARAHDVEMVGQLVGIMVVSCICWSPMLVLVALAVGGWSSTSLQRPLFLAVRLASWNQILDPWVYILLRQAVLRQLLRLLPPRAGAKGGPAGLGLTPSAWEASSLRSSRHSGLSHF
Method: as §1

EP3 = biological target: T5, EP3 (Homo sapiens, UniProt P43115); assay: EP3 activity study; format: cell-based
T5 sequence (P43115 1-390): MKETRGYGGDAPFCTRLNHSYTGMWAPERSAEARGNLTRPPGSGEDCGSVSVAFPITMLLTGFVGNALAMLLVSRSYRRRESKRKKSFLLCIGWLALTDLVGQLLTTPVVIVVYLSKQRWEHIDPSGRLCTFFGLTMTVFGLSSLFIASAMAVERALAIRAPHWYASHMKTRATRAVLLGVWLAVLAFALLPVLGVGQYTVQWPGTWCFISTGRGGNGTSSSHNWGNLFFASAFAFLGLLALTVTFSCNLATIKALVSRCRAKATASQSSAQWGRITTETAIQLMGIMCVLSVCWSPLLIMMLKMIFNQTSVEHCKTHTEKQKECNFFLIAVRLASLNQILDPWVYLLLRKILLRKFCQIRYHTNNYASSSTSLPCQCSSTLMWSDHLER
Method: as §1

TP = biological target: T6, TP (Homo sapiens, UniProt P21731); assay: TP activity study; format: cell-based
T6 sequence (P21731 1-343): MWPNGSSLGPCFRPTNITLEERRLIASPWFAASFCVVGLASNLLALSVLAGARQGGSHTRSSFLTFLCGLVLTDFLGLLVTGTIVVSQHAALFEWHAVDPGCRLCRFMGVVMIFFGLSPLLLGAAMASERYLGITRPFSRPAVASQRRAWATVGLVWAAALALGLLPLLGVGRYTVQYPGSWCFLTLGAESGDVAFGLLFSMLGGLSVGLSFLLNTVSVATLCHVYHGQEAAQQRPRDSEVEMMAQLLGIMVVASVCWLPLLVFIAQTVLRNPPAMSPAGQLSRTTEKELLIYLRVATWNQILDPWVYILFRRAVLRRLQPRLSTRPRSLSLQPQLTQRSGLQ
Method: as §1

EP4 [3] = biological target: T3, EP4; assay: EP4 binding study
Method: as §1

EP2 [4] = biological target: T2, EP2; assay: EP2 Ca2+ signal activity study; format: cell-based
Method: as §1

EP2 [5] = biological target: T2, EP2; assay: EP2 cAMP activity study; format: cell-based
Method: as §1

Row | SMILES | pEC50 (DP) | pEC50 (EP2 [1]) | pEC50 (EP4 [2]) | pEC50 (EP1) | pEC50 (EP3) | pEC50 (TP) | pEC50 (EP4 [3]) | pEC50 (EP2 [4]) | pEC50 (EP2 [5])
1 | C[C@@H](O)CCC[C@H](O)/C=C/[C@@H]1[C@@H](CCCc2ccc(C(=O)O)s2)[C@H](Cl)C[C@H]1O | 5.17 | – | – | – | – | – | – | – | –
2 | CCCC(O)CC(O)/C=C/[C@@H]1[C@@H](CCCc2ccc(C(=O)O)s2)[C@H](Cl)C[C@H]1O (stereo partly shown) | 5.65 | 6.15 | 7.64 | 5.91 | 6.16 | 5.32 | 6.36 | 7.57 | 8.52
3 | O=C(O)c1ccc(CCC[C@@H]2[C@@H](/C=C/[C@@H](O)CCCCCO)[C@H](O)C[C@H]2Cl)s1 | 5.47 | 6.83 | 7.17 | 7.00 | 6.89 | 5.12 | 5.95 | 8.40 | 9.40
4 | C[C@@H](O)CCCC[C@H](O)/C=C/[C@@H]1[C@@H](CCCc2ccc(C(=O)O)s2)[C@H](Cl)C[C@H]1O [5-(3-((1R,2R,3R,5R)-5-Chloro-2-((3S 8R,E)-3,8-dihydroxynon-1-en-1-yl)-3-hydroxycyclopentyl)propyl)thiophene-2-carboxylic acid] | 5.34 | 6.44 | 6.34 | 6.68 | 6.65 | – | < 5.00 | 7.54 | 8.85

Results, then the compound that gave them:

Row | pEC50 (DP) | pEC50 (EP2 [1]) | pEC50 (EP4 [2]) | pEC50 (EP1) | pEC50 (EP3) | pEC50 (TP) | pEC50 (EP4 [3]) | pEC50 (EP2 [4]) | pEC50 (EP2 [5]) | SMILES
5 | 6.05 | 6.83 | 7.35 | – | – | – | 6.31 | 8.05 | 8.64 | CCCCC(O)[C@H](O)/C=C/[C@@H]1[C@@H](CCCc2ccc(C(=O)O)s2)[C@H](Cl)C[C@H]1O (stereo partly shown)
6 | – | 6.44 | < 5.00 | 5.37 | 5.15 | – | 5.47 | 6.48 | 7.85 | C[C@@H](O)CCCC[C@@H](O)/C=C/[C@@H]1[C@@H](CCCc2ccc(C(=O)O)s2)[C@H](Cl)C[C@H]1O [5-(3-((1R,2R,3R,5R)-5-chloro-2-((3R,8R,E)-3,8-dihydroxynon-1-en-1-yl)-3-hydroxycyclopentyl)propyl)thiophene-2-carboxylic acid]
